# Laboratory results published in patent US10538555B2, “Macrocyclic inhibitors of the PD-1/PD-L1 and CD80(B7-1)/PD-L1 protein/protein interactions” (BRISTOL-MYERS SQUIBB COMPANY, priority 2014, dated 2020).
# *1 amine or outer side, *2 acyl side, *3 side chain or, on linkers, in order; H or OH if unused. Where a SMILES comes first, the peptide text is derived from it. Bridges are numbered along the chain shown (N, C = ends). [ ]: non-standard residue; d: D form. ξ: configuration not given here. Trp(1-CH2COOH) = N[C@@H](Cc1cn(CC(=O)O)c2ccccc12)C(=O)O; Phe(3,4,5-F3) = N[C@@H](Cc1cc(F)c(F)c(F)c1)C(=O)O; NMePhe(4-F) = CN[C@@H](Cc1ccc(F)cc1)C(=O)O; d(cisHyp) = O=C(O)[C@H]1C[C@@H](O)CN1; Bta = N[C@@H](Cc1csc2ccccc12)C(=O)O; NMeY = CN[C@@H](Cc1ccc(O)cc1)C(=O)O; Hyp = O=C(O)[C@@H]1C[C@@H](O)CN1; NMeF = CN[C@@H](Cc1ccccc1)C(=O)O; X1 = O=C([C@H]1COCCN1[*:1])[*:2]; NMeNle = CCCC[C@H](NC)C(=O)O; Tle = CC(C)(C)[C@H](N)C(=O)O; hSer = N[C@@H](CCO)C(=O)O; NMeA = CN[C@@H](C)C(=O)O; Orn = NCCC[C@H](N)C(=O)O; Dab = NCC[C@H](N)C(=O)O; ξC = NC(CS)C(=O)O; Sar = CNCC(=O)O
# Target: T1, Human PD-L1/PD-1 (Homo sapiens, UniProt Q9NZQ7)
# T1 construct: TVMV protease cleavage site (C); made in house; host or cells: HEK293T cells
# Assay: HTRF Human PD-L1/PD-1 binding assay (PD-1-Ig/PD-L1-His)
# Conditions: PD-L1-His 10 nM, PD-1-Ig 20 nM; class symbol; read-out: HTRF Human PD-L1/PD-1 Binding Assay IC50 Range
# How it was run: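 HTRF competition using HEK293T-expressed human PD-1(25-167)-Ig at 20 nM and PD-L1(18-239)-His at 10 nM, compound incubated first with PD-L1 for 15 min, then with PD-1 for 15 min. Signal read as 665/620 nm ratio 30 min after adding Eu anti-Ig and APC anti-His antibodies.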
# T1 sequence (Q9NZQ7 with tags, fused parts or gaps): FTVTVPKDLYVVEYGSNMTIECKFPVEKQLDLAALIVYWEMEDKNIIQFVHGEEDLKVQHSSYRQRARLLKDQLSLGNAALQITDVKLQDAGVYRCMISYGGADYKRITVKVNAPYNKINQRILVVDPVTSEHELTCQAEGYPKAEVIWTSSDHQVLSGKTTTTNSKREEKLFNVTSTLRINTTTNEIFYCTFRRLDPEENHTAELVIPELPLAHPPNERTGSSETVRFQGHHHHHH
row,IC50,SMILES
1,10 to 99.9 nM,CCCC[C@H]1C(=O)N(C)[C@@H](CCCC)C(=O)N[C@@H](CC(C)C)C(=O)N[C@H](C(=O)NCC(N)=O)CSCC(=O)N[C@@H](Cc2ccc(O)cc2)C(=O)N(C)[C@@H](C)C(=O)N[C@@H](CC(N)=O)C(=O)N2CCC[C@H]2C(=O)N[C@@H](Cc2cnc[nH]2)C(=O)N[C@@H](CCC(N)=O)C(=O)N2C[C@H](O)C[C@H]2C(=O)N[C@@H](Cc2c[nH]c3ccccc23)C(=O)N[C@@H](CO)C(=O)N[C@@H](Cc2cn(CC(=O)O)c3ccccc23)C(=O)N1C [Example 6176] ({CH2CO}-Y[NMeA]NPHQ[Hyp]WS[Trp(1-CH2COOH)][NMeNle][NMeNle]LCG-NH2; thioether N-14)
2,10 to 99.9 nM,CCCC[C@H]1C(=O)N(C)[C@@H](C)C(=O)N[C@@H](CCCNC(=N)N)C(=O)NC(C(=O)NCC(N)=O)CSCC(=O)N[C@@H](Cc2ccc(O)cc2)C(=O)N(C)[C@@H](C)C(=O)N[C@@H](CC(N)=O)C(=O)N2CCC[C@H]2C(=O)N[C@@H](Cc2cnc[nH]2)C(=O)N[C@H](CO)C(=O)N2C[C@H](O)C[C@H]2C(=O)N[C@@H](Cc2c[nH]c3ccccc23)C(=O)N[C@@H](CO)C(=O)N[C@@H](Cc2csc3ccccc23)C(=O)N1C (stereo partly drawn) [Example 9120] ({CH2CO}-Y[NMeA]NPH[dS][Hyp]WS[Bta][NMeNle][NMeA]R[ξC]G-NH2; thioether N-14)
3,1 to 9.9 nM,CCCC[C@H]1C(=O)N(C)[C@@H](CCCC)C(=O)N[C@@H](C)C(=O)N[C@H](C(=O)NCC(N)=O)CSCC(=O)N[C@@H](Cc2ccc(O)cc2)C(=O)N(C)[C@@H](C)C(=O)N[C@@H](CC(=O)O)C(=O)N2CCC[C@H]2C(=O)N[C@@H](Cc2cnc[nH]2)C(=O)N[C@@H](CCCN)C(=O)N2C[C@H](O)C[C@H]2C(=O)N[C@@H](Cc2c[nH]c3ccccc23)C(=O)N[C@@H](CO)C(=O)N[C@@H](Cc2cn(CC(=O)O)c3ccccc23)C(=O)N1C [Example 6249] ({CH2CO}-Y[NMeA]DPH[Orn][Hyp]WS[Trp(1-CH2COOH)][NMeNle][NMeNle]ACG-NH2; thioether N-14)
4,1 to 9.9 nM,CCCC[C@H]1C(=O)N(C)[C@@H](CCCC)C(=O)N[C@@H](CCN)C(=O)NC(C(=O)NCC(N)=O)CSCC(=O)N[C@@H](Cc2ccc(O)cc2)C(=O)N(C)[C@@H](C)C(=O)N[C@@H](CC(N)=O)C(=O)N2CCC[C@H]2C(=O)N[C@@H](CC(N)=O)C(=O)N[C@@H](CC(C)C)C(=O)N2CCC[C@H]2C(=O)N[C@@H](Cc2csc3ccccc23)C(=O)N[C@@H](CO)C(=O)N[C@@H](Cc2c[nH]c3ccccc23)C(=O)N1C (stereo partly drawn) [Example 9163] ({CH2CO}-Y[NMeA]NPNLP[Bta]SW[NMeNle][NMeNle][Dab][ξC]G-NH2; thioether N-14)
5,1 to 9.9 nM,"CCCC[C@H]1C(=O)N2C[C@H](O)C[C@@H]2C(=O)N[C@@H](CC(=O)O)C(=O)N[C@@H](C(C)C)C(=O)N(C)[C@@H](Cc2ccccc2)C(=O)N[C@@H](CCC(=O)O)C(=O)N2CCOC[C@@H]2C(=O)N[C@@H](Cc2c[nH]c3ccccc23)C(=O)N[C@@H](Cc2ccc(O)cc2)C(=O)N[C@@H](CC(N)=O)C(=O)N[C@H](C(=O)NCC(N)=O)CSCC(=O)N[C@@H](Cc2cc(F)c(F)c(F)c2)C(=O)N(C)[C@@H](Cc2ccc(F)cc2)C(=O)N1C [Example 10591] ({CH2CO}-[Phe(3,4,5-F3)][NMePhe(4-F)][NMeNle][d(cisHyp)]DV[NMeF]E[X1]WYNCG-NH2; thioether N-13)"
6,1 to 9.9 nM,CCCC[C@H]1C(=O)N(C)[C@@H](CCCC)C(=O)N[C@@H](CC(C)C)C(=O)N[C@H](C(=O)NCC(N)=O)CSCC(=O)N[C@@H](Cc2ccc(O)cc2)C(=O)N(C)[C@@H](C)C(=O)N[C@@H](CC(=O)O)C(=O)N2CCC[C@H]2C(=O)N[C@@H](Cc2cnc[nH]2)C(=O)N[C@@H](CCC(=O)O)C(=O)N2C[C@H](O)C[C@H]2C(=O)N[C@@H](Cc2c[nH]c3ccccc23)C(=O)N[C@@H](CCN)C(=O)N[C@@H](Cc2cn(CC(=O)O)c3ccccc23)C(=O)N1C [Example 6141] ({CH2CO}-Y[NMeA]DPHE[Hyp]W[Dab][Trp(1-CH2COOH)][NMeNle][NMeNle]LCG-NH2; thioether N-14)
7,10 to 99.9 nM,"CCCC[C@H]1C(=O)N2CCC[C@@H]2C(=O)N[C@@H](CC(=O)O)C(=O)N[C@@H](C(C)C)C(=O)N(C)[C@@H](Cc2ccccc2)C(=O)N[C@@H](CCN)C(=O)N2CCOC[C@@H]2C(=O)N[C@@H](Cc2c[nH]c3ccccc23)C(=O)N[C@@H](Cc2ccc(O)cc2)C(=O)N[C@@H](CCCN)C(=O)N[C@H](C(=O)NCC(N)=O)CSCC(=O)N[C@@H](Cc2cc(F)c(F)c(F)c2)C(=O)N(C)[C@@H](Cc2ccc(O)cc2)C(=O)N1C [Example 10625] ({CH2CO}-[Phe(3,4,5-F3)][NMeY][NMeNle][dP]DV[NMeF][Dab][X1]WY[Orn]CG-NH2; thioether N-13)"
8,1000 to 10000 nM,CCCC[C@H]1C(=O)N(C)[C@@H](CCCC)C(=O)N[C@@H](CCCN)C(=O)N[C@H](C(=O)NCC(N)=O)CSCC(=O)N[C@@H](Cc2ccc(O)cc2)C(=O)N2CCC(C)(C)[C@H]2C(=O)N[C@@H](CC(N)=O)C(=O)N2CCCC2C(=O)N[C@@H](Cc2cnc[nH]2)C(=O)N[C@@H](CC(C)C)C(=O)N2C[C@H](O)C[C@H]2C(=O)N[C@@H](Cc2c[nH]c3ccccc23)C(=O)N[C@@H](CO)C(=O)N[C@@H](Cc2c[nH]c3ccccc23)C(=O)N1C (stereo partly drawn) [Example 1240]
9,10 to 99.9 nM,CCCC[C@H]1C(=O)N(C)CC(=O)N[C@@H](CC(=O)O)C(=O)N[C@@H](C(C)(C)C)C(=O)N(C)[C@@H](Cc2ccccc2)C(=O)N[C@@H](Cc2ccc(O)cc2)C(=O)N(C)CC(=O)N[C@@H](Cc2c[nH]c3ccccc23)C(=O)N[C@@H](Cc2ccc(O)cc2)C(=O)N[C@@H](CC(C)C)C(=O)N[C@H](C(=O)NCC(N)=O)CSCC(=O)N[C@@H](Cc2ccccc2)C(=O)N(C)[C@@H](Cc2ccccc2)C(=O)N1C [Example 3211] ({CH2CO}-F[NMeF][NMeNle][Sar]D[Tle][NMeF]Y[Sar]WYLCG-NH2; thioether N-13)
10,10 to 99.9 nM,CCCC[C@H]1C(=O)N(C)[C@@H](CCCC)C(=O)N[C@@H](CC(C)C)C(=O)N[C@H](C(=O)NCC(N)=O)CSCC(=O)N[C@@H](Cc2ccc(O)cc2)C(=O)N(C)[C@@H](C)C(=O)N[C@@H](CC(N)=O)C(=O)N2CCC[C@H]2C(=O)N[C@@H](Cc2cnc[nH]2)C(=O)N[C@@H](CCC(N)=O)C(=O)N2C[C@H](O)C[C@H]2C(=O)N[C@@H](Cc2c[nH]c3ccccc23)C(=O)N[C@@H](CCN)C(=O)N[C@@H](Cc2cn(CC(=O)O)c3ccccc23)C(=O)N1C [Example 5241] ({CH2CO}-Y[NMeA]NPHQ[Hyp]W[Dab][Trp(1-CH2COOH)][NMeNle][NMeNle]LCG-NH2; thioether N-14)
11,1 to 9.9 nM,CCCC[C@H]1C(=O)N(C)[C@@H](CCCC)C(=O)N[C@@H](CCCCN)C(=O)N[C@H](C(=O)NCC(N)=O)CSCC(=O)N[C@@H](Cc2ccc(O)cc2)C(=O)N(C)[C@@H](C)C(=O)N[C@@H](CC(=O)O)C(=O)N2CCC[C@H]2C(=O)N[C@@H](Cc2c[nH]cn2)C(=O)N[C@@H](CC(C)C)C(=O)N2C[C@H](O)C[C@H]2C(=O)N[C@@H](Cc2c[nH]c3ccccc23)C(=O)N[C@@H](CO)C(=O)N[C@@H](Cc2c[nH]c3ccccc23)C(=O)N1C [Example 11002] ({CH2CO}-Y[NMeA]DPHL[Hyp]WSW[NMeNle][NMeNle]KCG-NH2; thioether N-14)
12,10 to 99.9 nM,CCCC[C@H]1C(=O)N2CCC[C@@H]2C(=O)N[C@@H](CC(=O)O)C(=O)N[C@@H](C)C(=O)N(C)[C@@H](Cc2ccccc2)C(=O)N[C@@H](Cc2ccc(O)cc2)C(=O)N(C)CC(=O)N[C@@H](Cc2c[nH]c3ccccc23)C(=O)N[C@@H](Cc2ccc(O)cc2)C(=O)N[C@@H](CC(C)C)C(=O)N[C@H](C(=O)NCC(N)=O)CSCC(=O)N[C@@H](Cc2ccccc2)C(=O)N(C)[C@@H](Cc2ccccc2)C(=O)N1C [Example 10044] ({CH2CO}-F[NMeF][NMeNle][dP]DA[NMeF]Y[Sar]WYLCG-NH2; thioether N-13)
13,1 to 9.9 nM,"CCCC[C@H]1C(=O)N2C[C@H](O)C[C@@H]2C(=O)N[C@@H](CC(=O)O)C(=O)N[C@@H](C(C)C)C(=O)N(C)[C@@H](Cc2ccccc2)C(=O)N[C@@H](CCC(=O)O)C(=O)N2CCOC[C@@H]2C(=O)N[C@@H](Cc2c[nH]c3ccccc23)C(=O)N[C@@H](Cc2ccc(O)cc2)C(=O)N[C@@H](CCOC)C(=O)N[C@H](C(=O)NCC(N)=O)CSCC(=O)N[C@@H](Cc2cc(F)c(F)c(F)c2)C(=O)N(C)[C@@H](Cc2ccccc2)C(=O)N1C [Example 10178] ({CH2CO}-[Phe(3,4,5-F3)][NMeF][NMeNle][d(cisHyp)]DV[NMeF]E[X1]WY[hSer](Me)CG-NH2; thioether N-13)"
14,10 to 99.9 nM,CCCC[C@H]1C(=O)N(C)[C@@H](CCCC)C(=O)N[C@@H](CCCNC(=N)N)C(=O)NC(C(=O)NCC(N)=O)CSCC(=O)N[C@@H](Cc2ccc(O)cc2)C(=O)N(C)[C@@H](C)C(=O)N[C@@H](CC(N)=O)C(=O)N2CCC[C@H]2C(=O)N[C@@H](CCO)C(=O)N[C@@H](CCO)C(=O)N2CCC[C@H]2C(=O)N[C@@H](Cc2c[nH]c3ccccc23)C(=O)N[C@@H](CO)C(=O)N[C@@H](Cc2c[nH]c3ccccc23)C(=O)N1C (stereo partly drawn) [Example 10021] ({CH2CO}-Y[NMeA]NP[hSer][hSer]PWSW[NMeNle][NMeNle]R[ξC]G-NH2; thioether N-14)

# Same assay, conditions: PD-L1-His 10 nM, PD-1-Ig 20 nM; read-out: HTRF Human PD-L1/PD-1 Binding Assay IC50
row,IC50,SMILES
1,10.6 nM,"CCCC[C@H]1C(=O)N2CCC[C@@H]2C(=O)N[C@@H](CC(=O)O)C(=O)N[C@@H](C(C)C)C(=O)N(C)[C@@H](Cc2ccccc2)C(=O)N[C@@H](CCC(=O)O)C(=O)N2CCOC[C@@H]2C(=O)N[C@@H](Cc2c[nH]c3ccccc23)C(=O)N[C@@H](Cc2ccc(O)cc2)C(=O)N[C@@H](CCN)C(=O)N[C@H](C(=O)NCC(N)=O)CSCC(=O)N[C@@H](Cc2cc(F)c(F)c(F)c2)C(=O)N(C)[C@@H](Cc2ccc(O)cc2)C(=O)N1C [Example 10616] ({CH2CO}-[Phe(3,4,5-F3)][NMeY][NMeNle][dP]DV[NMeF]E[X1]WY[Dab]CG-NH2; thioether N-13)"
